The results in this text go back to patent US20260015332A1, “SYNTHESIS METHOD AND APPLICATION OF BENZOTHIASELENAZOLE-1-OXIDE COMPOUND AND DERIVATIVE THEREOF” (priority 2022, published 2026).

The target of this assay is M^pro protein of SARS-CoV-2 (3CLpro, P132H mutation) (Severe acute respiratory syndrome coronavirus 2, UniProt P0DTD1, P3395H). It is filed as biochemical.

For the molecule `O=S1(c2ccccc2)=N[Se]c2ccccc21` (stereo not shown) [Compound 1, 1-phenylbenzo[d][1,3,2]thiaselenazole-1-ketone], the “inhibitory activity against the M^pro protein of SARS-CoV-2 compared with ebselen (EBS) control” value is “superior to that of the ebselen (EBS) control group”.
